Source: patent publication US20100004292A1, “Iminooxazolidine Derivatives and Their Use” (Bayer HealthCare AG, priority 2005, published 2010)

Target: human factor Xa (FXa) (Homo sapiens, UniProt P00742)
Experiment: Determination of the factor Xa inhibition (chromogenic substrate)
Assay type: biochemical
Conditions: human FXa 0.5 nmol/l, 150 μmol/l Pefachrome FXa, 25° C., pH 8.3
Description: The enzymatic activity of human factor Xa (FXa) is measured using the conversion of a chromogenic substrate specific for FXa. Factor Xa cleaves p-nitroaniline from the chromogenic substrate. The determinations are carried out in microtiter plates as follows:
The test substances, in various concentrations, are dissolved in DMSO and incubated for 10 minutes at 25° C. with human FXa (0.5 nmol/l dissolved in 50 mmol/l of Tris buffer [C,C,C-tris(hydroxymethyl)aminomethane], 150 mmol/l of NaCl, 0.1% BSA [bovine serum albumin], pH=8.3). Pure DMSO is used as control. The chromogenic substrate (150 μmol/l Pefachrome® FXa from Pentapharm) is then added. After an incubation time of 20 minutes at 25° C., the extinction at 405 nm is determined.

Sequence of human factor Xa (FXa) (P00742 235-488 limits assumed): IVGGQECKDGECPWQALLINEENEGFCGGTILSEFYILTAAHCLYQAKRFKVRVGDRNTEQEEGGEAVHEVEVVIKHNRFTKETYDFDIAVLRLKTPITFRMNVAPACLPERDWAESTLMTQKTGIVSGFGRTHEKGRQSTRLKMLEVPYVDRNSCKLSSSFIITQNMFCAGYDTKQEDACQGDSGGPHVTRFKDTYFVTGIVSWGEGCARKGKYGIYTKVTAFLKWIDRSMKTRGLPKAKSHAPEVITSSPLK
Sequence of human factor Xa (FXa) (P00742 41-179 partner limits assumed): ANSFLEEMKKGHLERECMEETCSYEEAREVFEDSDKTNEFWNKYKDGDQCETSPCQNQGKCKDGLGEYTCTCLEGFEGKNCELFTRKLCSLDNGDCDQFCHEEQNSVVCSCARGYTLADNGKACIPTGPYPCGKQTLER

Row | SMILES | IC50 [nM]
1 | N=C1OCCN1c1ccc(NC(=O)c2cscc2NC(=O)c2ccc(Cl)s2)cc1 [Example 16, 5-Chloro-N-[4-({[4-(2-imino-1,3-oxazolidin-3-yl)phenyl]amino}carbonyl)-3-thienyl]thiophene-2-carboxamide methanesulfonate] | 2.2
2 | Cc1cc(NC(=O)c2ccc(Cl)s2)c(C(=O)Nc2ccc(N3CCOC3=N)cc2)cc1N(C)C [Example 20, 5-Chloro-N-[4-(dimethylamino)-2-({[4-(2-imino-1,3-oxazolidin-3-yl)phenyl]amino}carbonyl)-5-methylphenyl]thiophene-2-carboxamide methanesulfonate] | 0.66

The remaining compounds from weak to strong by IC50, led by results:

Row | IC50 [nM] | SMILES
3 | 6.3 | N=C1OCCN1c1ccc(NC(=O)c2ccncc2NC(=O)c2ccc(Cl)s2)cc1 [Example 11, 3-{[(5-Chloro-2-thienyl)carbonyl]amino}-N-[4-(2-imino-1,3-oxazolidin-3-yl)phenyl]isonicotinamide methanesulfonate]
4 | 1.1 | N=C1OCCN1c1ccc(NC(=O)c2ccc(C(F)(F)F)cc2NC(=O)c2ccc(Cl)s2)cc1 [Example 3, 5-Chloro-N-[2-({[4-(2-imino-1,3-oxazolidin-3-yl)phenyl]amino}carbonyl)-5-(trifluoromethyl)-phenyl]thiophene-2-carboxamide methanesulfonate]
5 | 0.91 | CSc1nc(NC(=O)c2ccc(Cl)s2)c(C(=O)Nc2ccc(N3CCOC3=N)cc2)s1 [Example 24, 4-{[(5-Chloro-2-thienyl)carbonyl]amino}-N-[4-(2-imino-1,3-oxazolidin-3-yl)phenyl]-2-(methyl-thio)-1,3-thiazole-5-carboxamide methanesulfonate]
